# Experimental data from US10864200B2, “Stable formulations for immune-modulatory macrolides” (Roche Diagnostics Operations, Inc., priority 2017, dated 2020).
# Several values for one entry are separate records, joined by “and”; a condition that tells them apart may be missing. Equal entries are not always repeated. Where two headings read alike, the source gives them in different places.
# Tests used:
# [1] = cited from earlier work
# [2] = Real-time stability (RTS) of sirolimus and tacrolimus in chlorhexidine-containing cell-free blood hemolysate, LC-MS/MS; assay type: physicochemical; conditions: for real-time stability demonstrated: 6° C., chlorhexidine-containing hemolysate formulation; for area-ratio (analyte / internal standard): hemolysate with 0.024% chlorhexidine
# Description: (§1) A formulation was prepared by firstly hemolyzing human whole blood: Human EDTA whole blood of 5 donors was hemolyzed by a freeze-and-thaw cycle. After freezing the whole blood sample from each donor separately at −80° C. and thawing at room temperature, all samples were combined, mixed on a roller for at least 1 hour and then centrifuged for 15 minutes at 22° C. and 12000 g in order to remove fragments of hemolyzed blood cells potentially present. After the centrifugation, the upper section (approximately ⅘ of the whole volume) of the hemolyzed blood was used as hemolysate. Finally, chlorhexidine was added to the hemolysate to a concentration of 0.024%.
# For checking the RTS, the chlorhexidine-containing hemolysate was spiked from a highly concentrated stock solution of sirolimus to approx. 100 ng/mL or tacrolimus to approx. 135 ng/mL, and aliquots thereof were stressed at 6° C. for 3 months respectively in brown LC-MS vials. The stressed samples and the corresponding non-stressed samples (T0 samples) were stored at 6° C. for a couple of days until their LC-MS/MS analysis.
# LC-MS/MS method: Before performing the LC-MS/MS analysis the samples were prepared by addition of 10 μL structurally similar internal standards (everolimus D4 2×C13 for sirolimus and non-labeled ascomycin for tacrolimus) to 100 μL of the sample to be analyzed, followed by a protein precipitation by addition of 150 μL acetonitrile. The mixture was incubated at 4° C. for 60 minutes and then centrifuged (18000 g, 4° C., 30 min). The supernatant was 1:4 diluted with a solvent mixture of 30% acetonitrile and 70% deionized water and then injected in the LC-MS/MS. The recovery value was the found area-ratio at time point (T1) compared to the non-stressed area-ratio at start time point (T0) as reference (see table 5). Formulations with recoveries >90% were classified as stable and with 80-90% as acceptable.
# LC-MS/MS conditions were • Solvents: A: 5 mM NH4Acetate in H2O+0.1% Formic acid/ • B: Methanol+0.1% Formic acid • Gradient: according to Table 4. • AB Sciex Triple Quad 6500+/Agilent HPLC 1290-Infinity II • ESI source • Column: Phenomenex—Kinetex F5, 2.6 μm particle, 50 mm×2.1 mm • Temperature: 40° C. (Column) and 8° C. (Autosampler) • Injection volume 20 μL • MRM Transition at DP: 70 V EP: 10 V CXP: 12 V • Detection: everolimus: Q1: 975.7 Da Q3: 908.7 Da CE 25 V • everolimus d4,2×C13: Q1: 981.7 Da Q3: 914.7 Da CE 25 V • sirolimus: Q1: 931.7 Da Q3: 864.6 Da CE 25 V • tacrolimus: Q1: 821.5 Da Q3: 576.4 Da CE 33 V • ascomycin: Q1: 809.5 Da Q3: 564.4 Da CE 33 V
# [3] = known from literature; cited from earlier work
# [4] = Real-time stability (RTS) of everolimus in chlorhexidine-containing cell-free blood hemolysate, LC-MS/MS; assay type: physicochemical; conditions: for everolimus concentration: hemolysate with 0.024% chlorhexidine
# Description: as §1
# For checking the RTS, the chlorhexidine-containing hemolysate was spiked from a highly concentrated stock solution of everolimus to approx. 100 ng/ml, and aliquots thereof were stressed at 6° C. for 3, 6, 9, 12, and 15 months respectively in brown LC-MS vials. The stressed samples and the corresponding non-stressed samples (T0 samples) were analyzed by LC-MS/MS measurements.
# LC-MS/MS method: Before performing the LC-MS/MS analysis, the samples were treated by addition of 10 μL isotope-labeled internal standards (d4/2×C13—everolimus) to 100 μL of the sample to be analyzed, followed by a protein precipitation by addition of 150 μL acetonitrile. The mixture was incubated at 4° C. for 60 minutes and then centrifuged (18000 g, 4° C., 30 min). The supernatant was diluted 1:4 with a solvent mixture of 30% acetonitrile and 70% water and then injected in the LC-MS/MS. The samples were quantified by an external calibration curve. The calibrator was a set of solutions with different concentrations of analyte and they were run through the same preparation workflow, with the same internal standard as the samples. For the calculation of the concentration in a sample, the response factors (ratio of analyte peak area and internal standard peak area) of the sample were referenced with the linear function of the calibration curve (ratio by concentration). The recovery value was the concentration measured at time point (Ti) compared to the non-stressed concentration at start time point (T0) as reference (see Table 3). Formulations with recoveries >90% were classified as stable.
# LC-MS/MS conditions were • Solvents: A: 0.5 mM NH4Acetate in H2O/B: Methanol • Gradient: according to Table 2. • AB Sciex 6500 QTRAP/Agilent HPLC 1290-Infinity • APCI source negative mode • Column: Phenomenex—Kinetex F5, 2.6 μm particle, 150 mm×2.1 mm • Temperature: 50° C. (Column) and 8° C. (Autosampler) • Injection volume 20 μL • Calibration: external, with 6 concentration levels covering 0-500 ng/mL • MRM Transition at DP: −76 V EP: −10 V CE: −30 V CXP: −24 V • Detection: everolimus: Q1: 956.6 Da Q3: 590.2 Da; everolimus d4,2×C13: Q1: 962.2 Da Q3: 590.2 Da.
# [5] = Real-time stability study of everolimus in hemolysate with NaN3 as additive; assay type: physicochemical; conditions: hemolysate with 0.009% sodium azide
structure (smiles),measurement,setting,value
"CO[C@H]1C[C@@H]2CC[C@@H](C)[C@@](O)(O2)C(=O)C(=O)N2CCCC[C@H]2C(=O)O[C@H]([C@H](C)C[C@@H]2CC[C@@H](O)[C@H](OC)C2)CC(=O)[C@H](C)/C=C(\C)[C@@H](O)[C@@H](OC)C(=O)[C@H](C)C[C@H](C)/C=C/C=C/C=C/1C [sirolimus, (1R,9S,12S,15R,16E,18R,19R,21R,23S,24E,26E,28E,30S,32S,35R)-1,18-dihydroxy-12-{(2R)-1-[(1S,3R,4R)-4-hydroxy-3-methoxycyclohexyl]-2-propanyl}-19,30-dimethoxy-15,17,21,23,29,35-hexamethyl-11,36-dioxa-4-azatricyclo hexatriaconta-16,24,26,28-tetraene-2,3,10,14,20-pentone]",Literature-provided stability of blood samples,"[1]; 2-8° C., 4° C. (dark & in light)",8d/4 °C
same,Literature-provided stability of blood samples,"[1]; 2-8° C., 4° C.",7d/4 °C ^11
same,Literature-provided stability of blood samples,"[1]; <0° C., −20 to −80° C.",1a/−20 to −80 °C ^3
same,Literature-provided stability of blood samples,"[1]; <0° C., −20° C.",3m/−20 °C ^1 and 6m/−20 °C ^11
same,Literature-provided stability of blood samples,"[1]; >RT, 30° C. (dark & in light)",8d/30 °C
same,Literature-provided stability of blood samples,"[1]; >RT, 30° C. (in light)",7d/30 °C (in light) ^1
same,Literature-provided stability of blood samples,[1]; RT,1d/RT ^11 and 1d/RT ^3
same,real-time stability demonstrated,[2],3 months
same,aqueous solubility,[3],poor
"CO[C@H]1C[C@@H]2CC[C@@H](C)[C@@](O)(O2)C(=O)C(=O)N2CCCC[C@H]2C(=O)O[C@H]([C@H](C)C[C@@H]2CC[C@@H](OCCO)[C@H](OC)C2)CC(=O)[C@H](C)/C=C(\C)[C@@H](O)[C@@H](OC)C(=O)[C@H](C)C[C@H](C)/C=C/C=C/C=C/1C [everolimus, (1R,9S,12S,15R,16E,18R,19R,21R,23S,24E,26E,28E,30S,32S,35R)-1,18-dihydroxy-12-[(2R)-1-[(1S,3R,4R)-4-(2-hydroxyethoxy)-3-methoxycyclohexyl]propan-2-yl]-19,30-dimethoxy-15,17,21,23,29,35-hexamethyl-11,36-dioxa-4-azatricyclo hexatriaconta-16,24,26,28-tetraene-2,3,10,14,20-pentone]",Literature-provided stability of blood samples,"[1]; 2-8° C., 4° C.",7d/4 °C ^11
same,Literature-provided stability of blood samples,"[1]; >RT, 30° C. (in light)",7d/30 °C (in light) ^1
same,Literature-provided stability of blood samples,[1]; RT (in light),6h/RT (in light) ^4
same,everolimus concentration,[4]; 3 months at 6° C.,71.1 ng/mL
same,everolimus concentration,[4]; 6 months at 6° C.,81.8 ng/mL
same,real-time stability demonstrated,"[4]; 6° C., chlorhexidine-containing hemolysate formulation",15 months
same,everolimus concentration,[4]; 9 months at 6° C.,74.6 ng/mL
same,everolimus concentration,[4]; 12 months at 6° C.,92.0 ng/mL
same,everolimus concentration,[4]; 15 months at 6° C.,77.8 ng/mL
same,everolimus concentration,"[4]; T0 (non-stressed), spiked approx. 100 ng/ml",74.8 ng/mL
same,measured value for stressed everolimus (unit not given),[5]; 3 months at 6° C.,0.732
same,measured value for stressed everolimus (unit not given),[5]; T0,0.781
same,aqueous solubility,[3],poor
"C=CC[C@@H]1/C=C(\C)C[C@H](C)C[C@H](OC)[C@H]2O[C@@](O)(C(=O)C(=O)N3CCCC[C@H]3C(=O)O[C@H](/C(C)=C/[C@@H]3CC[C@@H](O)[C@H](OC)C3)[C@H](C)[C@@H](O)CC1=O)[C@H](C)C[C@@H]2OC [tacrolimus, (1R,9S,12S,13R,14S,17R,18E,21S,23S,24R,25S,27R)-1,14-dihydroxy-12-[(1E)-1-[(1R,3R,4R)-4-hydroxy-3-methoxycyclohexyl]prop-1-en-2-yl]-23,25-dimethoxy-13,19,21,27-tetramethyl-17-(prop-2-en-1-yl)-11,28-dioxa-4-azatricyclo octacos-18-ene-2,3,10,16-tetrone]",Literature-provided stability of blood samples (in words),[1]; 1d/RT,not stable ^9
same,Literature-provided stability of blood samples,"[1]; <0° C., −70° C.",1a/−70 °C ^8
same,Literature-provided stability of blood samples,"[1]; >RT, 37° C.",3d/37 °C ^7
same,Literature-provided stability of blood samples,[1]; RT,14d/RT ^8 and 7d/RT ^7
same,Recovery value (area-ratio at T1 compared to T0),[2]; 3 months at 6° C.,98%
same,area-ratio (analyte / internal standard),[2]; 3 months at 6° C.,0.972
same,real-time stability demonstrated,[2],3 months
same,area-ratio (analyte / internal standard),"[2]; T0 (non-stressed), sirolimus approx. 100 ng/mL, tacrolimus approx. 135 ng/mL",0.99
same,Recovery value (area-ratio at T1 compared to T0),[2]; T0 (reference),100%
same,aqueous solubility,[3],poor
